These results are taken from the METLIN SMRT retention time set (Domingo-Almenara et al. 2019).

The nature of the data set: gradient 5% acetonitrile 3 min, to 50% in 2 min, to 85% in 15 min, held 3 min, 100 µL/min. As to conditions: column: Zorbax Extend-C18 2.1 x 50 mm; eluents: water / acetonitrile, 0.1% formic acid. The gist of the method:
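Standards, all pure, were combined into mixtures of ~100 molecules and run at 100 μL/min on a Zorbax Extend-C18 column (2.1 × 50 mm, 1.8 μm) with water and acetonitrile, each containing 0.1% formic acid. A coupled quadrupole time-of-flight mass spectrometer operated in positive and negative ionization mode. Retention time values come from computationally picked adduct peaks, each inspected manually.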
As to `O=C(Nc1ccc(Br)cc1)C1CCN(c2cc(N3CCCC3)ncn2)CC1`, the RP-LC retention time amounted to 721 s. On to `CCc1ccc2[nH]c3c(c(=O)c2c1)CN(CC(=O)NC1CCCCC1)CC3`, for which the RP-LC retention time came out at 630 s. Regarding `O=C(Cc1csc2nc(-c3ccccc3)cn12)N1CCN(c2ccc(Cl)cc2)CC1`, the RP-LC retention time was found to be 915 s. `Cc1sc(-c2nnc(C3CCC3)o2)cc1NC(=O)c1ccc(C#N)cc1` registered an RP-LC retention time of 965 s. On to `CCN1c2cc(C(=O)NCCC3=CCCCC3)ccc2C(=O)N2CCCCC21` (stereo unspecified), for which the RP-LC retention time was found to be 959 s. In the case of `CCn1c(CCC(=O)NCc2cccc(F)c2)nc2ccccc2c1=O`, the RP-LC retention time was determined as 700 s. With `CCc1nnc2ccc(-c3noc(Cc4ccc(C)cc4)n3)cn12`, the RP-LC retention time worked out at 918 s. Regarding `O=C(c1cccs1)N1CCCCC1c1nncn1Cc1ccccc1` (stereo unspecified), the RP-LC retention time came out at 642 s.

For `CC(C)Nc1nc(-c2ccc([N+](=O)[O-])cc2)nc2ccccc12`, the RP-LC retention time amounted to 751 s. In turn, `COc1cccc(C(=O)N2CCC3(C2)C(=O)N(C)c2ccccc23)c1OC` (stereo unspecified) had an RP-LC retention time of 749 s. In turn, `CC(C)CCNC(=O)C1CC(=O)N(CCc2c[nH]c3ccc(Cl)cc23)C1` (stereo unspecified) displayed an RP-LC retention time of 809 s. For `CCn1ccc2cc(S(=O)(=O)N3CCCN(C(=O)Nc4ccccc4)CC3)ccc21` the value was 868 s. The compound `Cc1ccnc(N2CCCC(C(=O)NCc3ccc(F)cc3)C2)n1` (stereo unspecified) showed an RP-LC retention time of 709 s. Take `COc1ccc(Cl)cc1S(=O)(=O)N1CCC(c2noc(-c3ccccc3)n2)CC1`: the RP-LC retention time amounted to 1130 s.

The compound `COc1ccc(N2CC(c3nc(-c4ccccc4)no3)CC2=O)cc1OC` (stereo unspecified) displayed an RP-LC retention time of 669 s. In the case of `O=C(CCS(=O)(=O)c1ccccc1)Nc1nc(-c2ccccc2)cs1` it was 1120 s. On to `CC(C)c1ccc(S(=O)(=O)N2CCCC2c2nc(-c3ccccc3)no2)cc1` (stereo unspecified), for which the RP-LC retention time came to 1250 s. The compound `CCc1nc2cc(-c3noc(-c4cc5ccccc5oc4=O)n3)ccc2o1` registered an RP-LC retention time of 1010 s.

In the case of `CC(C)c1cc(N2CCN(C(=O)Cc3cccs3)CC2)nc2nncn12`, the RP-LC retention time was 613 s. For `O=C(NCCn1nnc2cc(C(=O)N3CCCC3)ccc21)Nc1ccc(F)cc1` the value was 662 s; for `CCCN1C(=O)Cc2c(C)nc(-c3cccc(F)c3)nc21`, 1090 s; for `O=C(NCCC(c1ccccc1)c1ccccc1)c1cnc2sccn2c1=O`, 847 s. The compound `Cc1ccc(NC(=O)C2CCN(S(=O)(=O)c3cn(C)cn3)CC2)c(C)c1` displayed an RP-LC retention time of 706 s. The compound `COC(=O)C1=CN(c2cccc(OC)c2)c2cc(Br)ccc2S1(=O)=O` yielded an RP-LC retention time of 942 s. `Cc1ccc(NC(=O)Cn2ncc3c(c2=O)N(C)C(=O)CS3)c(Br)c1`: the RP-LC retention time was 714 s. `CCc1nc2cc(N3CCC(C(=O)NCCN4CCCC4)CC3)cnc2nc1CC` returned an RP-LC retention time of 600 s. The compound `CCOC(=O)CSc1nc2ccccc2n1C` had an RP-LC retention time of 670 s. For `CN1CCc2c([nH]c3ccccc23)C12CCN(S(=O)(=O)c1cccnc1)CC2` the value was 585 s; for `COc1ccc(CN2CCc3nc(N4CCN(c5ncccn5)CC4)ncc3C2)cc1OC`, 626 s; for `O=C(NCC(F)(F)F)C1CCN(C(=O)NCc2ccccc2)CC1`, 656 s. Turning to `CN(C)S(=O)(=O)c1ccc(-c2nnc(C(=O)N3CCCC3)o2)cc1`, the RP-LC retention time worked out at 727 s. For the compound `Cc1ccc(-c2nc(NC3CCCCC3C)c3ccccc3n2)cc1` (stereo unspecified), the RP-LC retention time is 906 s. On to `CN(C)C(=O)c1ccc2c(c1)nnn2CCNC(=O)Nc1cccc(Br)c1`, for which the RP-LC retention time is 678 s.

For the compound `CCOC(=O)c1ccc2nc(C(F)(F)F)nc(NCCCN3CCCC3=O)c2c1`, the RP-LC retention time stood at 876 s. Take `O=C([C@@H]1C[C@H](F)CN1C(=O)c1ccc(F)cc1)N1CCOCC1`: the RP-LC retention time was determined as 608 s.

`CCN1CCCCc2cc(C(=O)N(C)CCN(C)C)sc21` gave an RP-LC retention time of 638 s.

In turn, `N#Cc1ccc(NC(=O)C2Oc3ccccc3NC2=O)cc1` (stereo unspecified) registered an RP-LC retention time of 727 s. In turn, `CN1C(=O)c2cc(S(=O)(=O)Nc3ccc(F)c(F)c3)ccc2Oc2cccnc21` showed an RP-LC retention time of 910 s. The compound `Cc1noc([C@@H]2CC(F)(F)CN2C(=O)c2cc(C)[nH]n2)n1` displayed an RP-LC retention time of 604 s. Regarding `O=C1CCCN1CN(C(=O)c1ccccc1F)c1nc2ccccc2s1`, the RP-LC retention time was determined as 866 s. With `Cc1ccc(CSc2nc(CC(=O)NCc3cccnc3)cs2)cc1`, the RP-LC retention time was 605 s. `COc1ccc(-c2nc3ccccn3c2Nc2ccc(Cl)cc2)cc1` came in with an RP-LC retention time of 671 s.

`O=C(CN1C(=O)C2CCCCN2c2ccc(S(=O)(=O)N3CCCC3)cc21)NCCN1CCCC1` (stereo unspecified) registered an RP-LC retention time of 636 s.

The compound `O=C(CC1C=Cc2ccccc2N1C(=O)c1ccccc1)c1ccccc1` (stereo unspecified) displayed an RP-LC retention time of 1270 s. Take `CCOC(=O)c1ccccc1NC(=O)Cn1c(-c2ccc(F)cc2)nc(C)cc1=O`: the RP-LC retention time was found to be 1320 s. For `O=C1CCCCC(Cc2cccnc2)(C(=O)NCc2ccc3c(c2)OCO3)N1` (stereo unspecified), the RP-LC retention time stood at 591 s.

`CCn1cc(C(=O)NCc2ccc(F)cc2)c(S(=O)(=O)N2CCSCC2)n1` gave an RP-LC retention time of 915 s. For `Cc1cc(NC(=O)c2cc(Cl)sc2Cl)n(C(C)C)n1`, the RP-LC retention time came to 810 s.

`Cc1cccc(-c2nc(-c3ccc4c(c3)oc(=O)n4C)no2)c1` returned an RP-LC retention time of 1130 s. For the compound `Cc1csc(-c2cc(S(=O)(=O)Nc3ccc(S(N)(=O)=O)cc3)c(C)n2C)n1`, the RP-LC retention time amounted to 749 s. In the case of `CCOC(=O)c1c(C)oc2nc(C)nc(Nc3ccc(C)c(F)c3)c12` it was 1360 s; in that of `CCc1cc(C(=O)NCc2ccc(C)cc2)nc2ccnn12`, 985 s; in that of `CSc1ccc(CCNC(=O)C2CCCN(C(=O)Cc3cccc4ccccc34)C2)cc1` (stereo unspecified), 971 s. As for `CCC(=O)Nc1ccc(-n2cnc(C(=O)N3CCN(c4cccc(OC)c4)CC3)c2)nc1`, the RP-LC retention time is 717 s. In the case of `CCc1nc(OCC(=O)Nc2ccc(Cl)cc2Cl)c2ccccc2n1` it was 937 s; in that of `O=C(Nc1ccc2c(c1)N(S(=O)(=O)c1ccc(F)cc1)CCC2)C1CC1`, 852 s.

In the case of `CN1CCN(S(=O)(=O)c2cccc(-c3nc(-c4ccccc4)no3)c2)CC1`, the RP-LC retention time was determined as 694 s. Regarding `CCCN1C(=O)c2cc(S(=O)(=O)Nc3ccc(F)c(F)c3)ccc2Oc2cccnc21`, the RP-LC retention time worked out at 1100 s. For the compound `COc1ccc(NC(=O)Cn2nc3cc(C)nc(Nc4ccc(C)c(F)c4)n3c2=O)cc1`, the RP-LC retention time was determined as 1040 s. Take `O=C(NCC(F)(F)F)C1CCN(C(=O)Cc2ccc(Cl)cc2)CC1`: the RP-LC retention time stood at 707 s.

The compound `Cc1ccc(-c2cn3cccnc3n2)cc1NC(=O)CC1CCCCC1` yielded an RP-LC retention time of 720 s. Regarding `O=C(NCc1ccc(F)cc1)N1CC(n2ccnc2)C1`, the RP-LC retention time was found to be 577 s. The compound `Cc1nnc(N2CCCC(C(=O)NCc3ccccc3)C2)c2nn(-c3ccc(Cl)cc3)c(C)c12` (stereo unspecified) displayed an RP-LC retention time of 765 s.

`CSc1cccc(NC(=O)N(C)CCc2noc(-c3ccc(F)cc3)n2)c1` returned an RP-LC retention time of 922 s. Compound `Cc1nc(C2CCOCC2)n(C2CCN(S(=O)(=O)c3ccc(F)cc3F)C2)n1` (stereo unspecified) gave an RP-LC retention time of 712 s.

`O=C(N1CC(c2nc(-c3cccs3)no2)C1)C1(c2ccccc2)CCOCC1` came in with an RP-LC retention time of 814 s. In the case of `CC(C)c1cc(C(=O)Nc2ccc(F)cc2F)nc2ccnn12` it was 1160 s; in that of `CN(C)C(=O)c1cn(C2CN(C(=O)c3cccc(C#N)c3)C2)nn1`, 613 s. For `CS(=O)(=O)Nc1cccc(NC(=O)CN2CCN(c3ccc4c(c3)OCCO4)C2=O)c1` the value was 657 s.

Compound `O=C(c1nc2ccccc2s1)N1CCN(Cc2nc(-c3ccc(F)cc3)cs2)CC1` showed an RP-LC retention time of 882 s.

For the compound `Cn1c(-c2cccc(C(=O)NCc3cc(F)cc(F)c3)c2)nc2cccnc21`, the RP-LC retention time is 762 s. For the compound `CCn1cc(-c2ccc(OC)cc2)cc1C(=O)N1CCCCCC1`, the RP-LC retention time amounted to 1080 s. In turn, `Cc1ccc(-c2nc(-c3ccc4c(c3)nc(C)c(=O)n4C)no2)cc1` had an RP-LC retention time of 1090 s.

The compound `CN(C)C(=O)c1ccc2c(c1)N(CC(=O)N1CCN(c3ccccn3)CC1)C(=O)CO2` had an RP-LC retention time of 784 s. `Cc1cc2c(=O)n(CC(=O)Nc3cccc(Br)c3)ccc2s1`: the RP-LC retention time amounted to 850 s. `Cc1c(Cl)cccc1-n1ccn2cc(-c3ccccc3)nc2c1=O` yielded an RP-LC retention time of 880 s. As for `CCCCNC(=O)CN1C(=O)C2CCCCN2c2ccc(C(=O)N3CCCC3)cc21` (stereo unspecified), the RP-LC retention time is 743 s. Take `CCc1cccc(NC(=O)Cc2nnc3cc(-c4nc(C(C)C)no4)ccn23)c1`: the RP-LC retention time is 918 s.

Compound `Cc1cccc(C(=O)N2CCN(c3c(C)n(C)c(=O)n(C)c3=O)CC2)c1` returned an RP-LC retention time of 726 s. `CN(Cc1ccco1)C(=O)Cn1cccc1-c1nnc(-c2ccccc2)o1` displayed an RP-LC retention time of 919 s. `CCCC(NC(=O)c1cccc(OC)c1)C(=O)Nc1nc2ccccc2[nH]1` (stereo unspecified) yielded an RP-LC retention time of 696 s.
